Target: E3 ubiquitin-protein ligase Mdm2 (Homo sapiens, UniProt Q00987)
Assay: Fluorescence-polarization Binding Assay
Conditions: pH 7.5

Sequence of E3 ubiquitin-protein ligase Mdm2 (Q00987 whole entry): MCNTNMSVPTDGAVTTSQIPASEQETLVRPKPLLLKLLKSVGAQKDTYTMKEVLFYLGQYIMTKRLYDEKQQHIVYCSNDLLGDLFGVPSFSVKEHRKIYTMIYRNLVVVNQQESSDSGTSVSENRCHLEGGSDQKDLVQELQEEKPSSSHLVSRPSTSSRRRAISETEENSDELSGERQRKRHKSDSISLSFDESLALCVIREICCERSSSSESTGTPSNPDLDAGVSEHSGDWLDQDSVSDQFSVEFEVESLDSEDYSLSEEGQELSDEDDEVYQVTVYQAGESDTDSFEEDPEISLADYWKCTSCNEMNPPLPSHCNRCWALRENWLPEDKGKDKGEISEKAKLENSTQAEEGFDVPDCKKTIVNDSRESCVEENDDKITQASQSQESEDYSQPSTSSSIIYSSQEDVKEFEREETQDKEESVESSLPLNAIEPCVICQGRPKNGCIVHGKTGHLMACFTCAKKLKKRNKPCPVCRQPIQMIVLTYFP

IC50: < 1000 nM
SMILES: O=C(NCC[C@H](O)CO)[C@@H]1N[C@H](CC2CCCCC2)[C@]2(C(=O)Nc3cc(Cl)c(F)cc32)[C@H]1c1cccc(Cl)c1

Reference: BindingDB's records for patent US8680132 (University of Michigan, 2014)
